This data set is described as follows: PK analysis of AK3287 in plasma and skin by LC/MS after application on wound. The class given is in vivo, Duroc pig. The method, then: According to Table 4, 1 ml of the AK3287 emulsion or vehicle was administered to each of the wounds and smeared evenly on the wounds. The above administration treatment was carried out once daily. The time points for administration were set to start on Day 3 and end on Day 21.
3. Sample and analysis of PK test:
On Day 4, Day 9, Day 15, and Day 21 (i.e., on Day 1, Day 6, Day 12, and Day 18 after the first administration), a piece of circular skin was obtained by surgical incision with a skin biopsy punch (10 mm), after the animal was anesthetized and before the drug was smeared. Blood was sampled from the jugular vein and prepared as plasma. A total of 48 skin samples and 48 plasma samples were collected and subjected to PK analysis by LC/MS method.

Structures are written as SMILES.

`Cn1cc(-c2cn(-c3ccc(OC(F)(F)F)cc3)c(=O)c3ncn(C)c23)cn1` [AK3287]: the “amount of AK3287 entering the blood (plasma PK)” value (plasma, application of emulsion on wound, FIG. 2) is recorded as “a small amount of AK3287 could enter the blood”. The “exposure in the skin, by dose group” value (skin, 0.5%, 2% and 8% emulsion groups, FIG. 3) is given as “higher in the high-dose group”. For the same molecule, the “distribution of AK3287 in skin tissues (skin PK)” value (skin, application of emulsion on wound, FIG. 3) was “a majority of AK3287 remained in the skin tissues”.

(Values after patent US20230293500A1, “AK3287 PREPARATION, AND PREPARATION METHOD THEREFOR AND APPLICATION THEREOF” (SUZHOU ARK BIOPHARMACEUTICAL CO., LTD., priority 2020, published 2023).)
